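Results reflect a 48-hour exposure of cells in 96-well plates to compound at five concentrations. TGI denotes the concentration required for complete inhibition of growth.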 Where a SMILES comes first, the peptide text is derived from it. [ ]: non-standard residue; d: D form. The star is where a group is joined. ξ: configuration not given here. Propanoyl(3-(4-MeO-Ph)) = COc1ccc(CCC(=O)*)cc1; Thr(3ξ) = CC(O)[C@H](N)C(=O)O; dNMeL = CN[C@H](CC(C)C)C(=O)O; ξLac = CC(O)C(=O)O

Among the test systems are SF-295 CNS; KM20L2 colon; SNB-75 CNS; OVCAR-8 ovarian; SK-MEL-28 melanoma; SK-OV-3 ovarian; DMS 273 small cell lung; MOLT-4 leukemia; PC-3 prostate; MCF7 breast.
Common to all, as to assay: inhibition of tumour cell growth, NCI panel, 48 h

With `O=C1C2=C(CCCCC2)C2CCCCC12O` (stereo not given), the TGI in the assay on SF-295 CNS, in the assay on KM20L2 colon, in the assay with SNB-75 CNS, with OVCAR-8 ovarian, in the assay with SK-MEL-28 melanoma and with SK-OV-3 ovarian was over 100 µM in each case. Moreover, the TGI in the assay with DMS 273 small cell lung and in the assay with MOLT-4 leukemia was over 100 µM throughout.

Consider `O=C1OC(c2ccc(Cl)cc2)(c2ccc(Cl)cc2)c2c1ccc1ccccc21`, for which the TGI with SF-295 CNS, in the assay on KM20L2 colon, in the assay on SNB-75 CNS, in the assay with OVCAR-8 ovarian, with SK-MEL-28 melanoma and in the assay with SK-OV-3 ovarian was over 100 µM each time. For the same compound, the TGI in the assay with DMS 273 small cell lung and in the assay on MOLT-4 leukemia was over 100 µM each time.

`Cc1ccc(S(=O)(=O)C2c3nc4ccccc4cc3-c3nc4ccccc4nc32)cc1` (stereo not given): the TGI with KM20L2 colon, in the assay on SNB-75 CNS, in the assay with OVCAR-8 ovarian, in the assay with SK-MEL-28 melanoma, in the assay with SK-OV-3 ovarian and in the assay with DMS 273 small cell lung was over 100 µM each time. In addition, in the assay with MOLT-4 leukemia, the TGI was over 100 µM.

With `CCCC(=O)Nc1cc(/C=C/C(=O)N2CC(CCl)c3c2cc([N+](=O)[O-])c2ccccc32)n(C)c1` (stereo not given), the TGI with SF-295 CNS is over 100 µM; in the assay on PC-3 prostate it was over 100 µM; with SNB-75 CNS it was 97.7 µM; with OVCAR-8 ovarian it was over 100 µM; in the assay on SK-MEL-28 melanoma, over 100 µM; in the assay with SK-OV-3 ovarian it was over 100 µM. In addition, the TGI in the assay on MCF7 breast and in the assay with MOLT-4 leukemia was over 100 µM each time.

For the compound `CCOC(=O)C1=CC(C)(C(=O)OCC)Nc2c(nc(SC)n(C)c2=O)N1` (stereo not given), the TGI in the assay on SF-295 CNS, in the assay on PC-3 prostate, in the assay with SNB-75 CNS, with OVCAR-8 ovarian, in the assay with SK-MEL-28 melanoma and in the assay with SK-OV-3 ovarian was over 10 µM in each case. The TGI in the assay on MCF7 breast and with MOLT-4 leukemia was over 10 µM each time.

With `CCOc1cc2c(cc1O)CC[C@@H]1[C@@H]2CC[C@]2(C)C(OS(=O)OC3CC[C@@H]4[C@H]5CCc6cc(O)c(OCC)cc6[C@@H]5CC[C@@]34C)CC[C@@H]12` (stereo not given in full), the TGI was 22.5 µM in the assay on SF-295 CNS; 24.9 µM in the assay with PC-3 prostate; 34.4 µM with SNB-75 CNS; 10 µM with OVCAR-8 ovarian; 11.7 µM in the assay with SK-MEL-28 melanoma; over 37.3 µM in the assay with SK-OV-3 ovarian. For the same compound, the TGI in the assay with MCF7 breast is 7.01 µM; in the assay with MOLT-4 leukemia, over 68 µM.

Consider `CCOC(=O)Cn1nnc2cc(Nc3nc4ccccc4nc3C(=O)OCC)ccc21`, for which the TGI is over 100 µM with SF-295 CNS; over 100 µM in the assay with PC-3 prostate; 9.39 µM with SNB-75 CNS; over 100 µM in the assay on OVCAR-8 ovarian; over 100 µM with SK-MEL-28 melanoma; over 100 µM in the assay on SK-OV-3 ovarian. Also, the TGI with MCF7 breast and in the assay with MOLT-4 leukemia was over 100 µM throughout.

Regarding `NC(=O)CCC(NC(=O)c1cccc2c(=O)c3ccccc3[nH]c12)C(=O)O` (stereo not given), the TGI in the assay with SF-295 CNS, in the assay with PC-3 prostate, with SNB-75 CNS, in the assay on OVCAR-8 ovarian, in the assay with SK-MEL-28 melanoma and in the assay with SK-OV-3 ovarian was over 100 µM throughout. The TGI in the assay on MCF7 breast and in the assay with MOLT-4 leukemia was over 100 µM throughout.

As for `COc1nc2ccc(CNc3ccc(C(=O)O)cc3)cc2nc1OC`, the TGI in the assay on SF-295 CNS, in the assay on PC-3 prostate, with SNB-75 CNS, in the assay with OVCAR-8 ovarian, in the assay with SK-MEL-28 melanoma and in the assay on SK-OV-3 ovarian was over 10 µM each time. Further, the TGI with MCF7 breast and in the assay on MOLT-4 leukemia was over 10 µM each time.

For the compound `S=c1nc2sc3c(c2c(Nc2ccc(Br)cc2)[nH]1)CCN(N1CCc2c(sc4nc(=S)[nH]c(Nc5ccc(Br)cc5)c24)C1)C3`, the TGI in the assay with SF-295 CNS was over 50 µM; in the assay with PC-3 prostate it was over 50 µM; with SNB-75 CNS, over 50 µM; in the assay on OVCAR-8 ovarian, over 50 µM; in the assay on SK-MEL-28 melanoma it was 31 µM; in the assay on SK-OV-3 ovarian, over 50 µM. Moreover, the TGI in the assay with MCF7 breast and in the assay on MOLT-4 leukemia was over 50 µM in each case.

In the case of `Cc1[nH]c(=O)nc2nc3ccc(Cl)cc3c(NC(C)(CO)CO)c12`, the TGI with SF-295 CNS was over 100 µM; with PC-3 prostate it was over 100 µM; in the assay on SNB-75 CNS, over 96.5 µM; in the assay with OVCAR-8 ovarian it was over 100 µM; with SK-MEL-28 melanoma, over 100 µM; with SK-OV-3 ovarian, over 100 µM. Further, the TGI in the assay with MCF7 breast and in the assay with MOLT-4 leukemia was over 100 µM in each case.

On to `COC(=O)[C@@H](NC(=O)[C@@H](CC(C)C)N(C)C(=O)[C@@H]1CCCN1C(=O)C(C)O)C(C)OC(=O)CCc1ccc(OC)cc1` (stereo not given in full) (H-[ξLac]P[dNMeL][Thr(3ξ)](Propanoyl(3-(4-MeO-Ph)))-OMe), for which the TGI with SF-295 CNS, in the assay with PC-3 prostate, in the assay on SNB-75 CNS, in the assay with OVCAR-8 ovarian, in the assay on SK-MEL-28 melanoma and in the assay on SK-OV-3 ovarian was over 100 µM throughout. Also, the TGI in the assay with MCF7 breast and with MOLT-4 leukemia was over 100 µM in each case.

The values are drawn from PubChem BioAssay (NCI).
